Laboratory results as given in ChEMBL document CHEMBL4825751, “Design, synthesis, and antitumor activity evaluation of steroidal oximes” (Bioorg Med Chem, 2021).
Activity calls are given as the source filed them. No cut-off for these calls is given here.

Tests used:
PC-3 [1] = assay: Anticancer activity against human PC-3 cells assessed as inhibition of cell proliferation measured after 72 hrs by MTT assay; assay type: functional, cell-based; conditions: PC-3, 72 h
WiDr [2] = assay: Anticancer activity against human WiDr cells assessed as inhibition of cell proliferation measured after 72 hrs by MTT assay; assay type: functional, cell-based
HepG2 = assay: Anticancer activity against human HepG2 cells assessed as inhibition of cell proliferation measured after 72 hrs by MTT assay; assay type: functional, cell-based; conditions: HepG2, 72 h
NCI-H1299 = assay: Anticancer activity against human H1299 cells assessed as inhibition of cell proliferation measured after 72 hrs by MTT assay; assay type: functional, cell-based; conditions: NCI-H1299, 72 h
PC-3 [3] = assay: Cytotoxicity against human PC-3 cells assessed as cell viability measured after 72 hrs by MTS assay; assay type: functional, cell-based; conditions: PC-3, 72 h
CCD-841CoN = assay: Anticancer activity against human CCD841 CoN cells assessed as inhibition of cell proliferation measured after 72 hrs by MTT assay; assay type: cell-based
PC-3 [4] = assay: Antiproliferative activity against human PC-3 cells assessed as reduction in cell viability at IC50 concentration measured after 72 hrs by Annexin-V and propidium iodide staining based flow cytometry analysis; assay type: functional
WiDr [5] = assay: Antiproliferative activity aginst human WiDr cells assessed as reduction in cell viability at IC50 concentration measured after 72 hrs by annexin -V and propidium iodide staining based flow cytometry analysis; assay type: functional
PC-3 [6] = assay: Induction of apoptosis in human PC-3 cells assessed as apoptotic cells at IC50 concentration measured after 72 hrs by annexin-V and propidium iodide staining based flow cytometry analysis; assay type: functional
PC-3 [7] = assay: Induction of apoptosis in human PC-3 cells assessed as apoptotic cells at 50 uM measured after 72 hrs by annexin-V and propidium iodide staining based flow cytometry analysis; assay type: functional
WiDr [8] = assay: Induction of apoptosis in human WiDr cells assessed as late apoptotic/necrotic cells at 50 uM measured after 72 hrs by annexin-V and propidium iodide staining based flow cytometry analysis; assay type: functional, cell-based
PC-3 [9] = assay: Induction of cell cycle arrest in human PC-3 cells assessed as pre-G0/G1 phase at 40 uM measured after 72 hrs by propidium iodide based assay relative to control; assay type: functional
WiDr [10] = assay: Induction of cell cycle arrest in human WiDr cells assessed as pre-G0/G1 phase at 40 uM measured after 72 hrs by propidium iodide based assay relative to control; assay type: functional
PC-3 [11] = assay: Induction of apoptosis in human PC-3 cells assessed as fold increase in BAX/BCL-2 ratio at 50 uM measured after 72 hrs relative to control; assay type: functional
PC-3 [12] = assay: Induction of mitochondrial membrane potential loss in human PC-3 cells at IC50 concentration after 72 hrs by flow cytometry; assay type: functional, cell-based
WiDr [13] = assay: Induction of mitochondrial membrane potential loss in human WiDr cells at IC50 concentration after 72 hrs by flow cytometry; assay type: functional, cell-based
PC-3 [14] = assay: Induction of mitochondrial membrane potential loss in human PC-3 cells at 50 uM after 72 hrs by flow cytometry; assay type: functional
PC-3 [15] = assay: Induction of oxidative stress in human PC-3 cells assessed as increase in superoxide anion level at IC50 concentration incubated for 24 hrs by DHE based red fluorescence assay; assay type: functional, cell-based
WiDr [16] = assay: Induction of oxidative stress in human WiDr cells assessed as increase in superoxide anion level at IC50 concentration incubated for 24 hrs by DHE based red fluorescence assay; assay type: functional, cell-based
PC-3 [17] = assay: Induction of oxidative stress in human PC-3 cells assessed as increase in peroxide level at IC50 concentration incubated for 24 hrs by DCFH2 based green fluorescence assay; assay type: functional, cell-based
WiDr [18] = assay: Induction of oxidative stress in human WiDr cells assessed as increase in peroxide level at IC50 concentration incubated for 24 hrs by DCFH2 based green fluorescence assay; assay type: functional, cell-based
PC-3 [19] = assay: Induction of oxidative stress in human PC-3 cells assessed as increase in superoxide anion level at 15 uM incubated for 24 hrs by DHE based red fluorescence assay; assay type: functional, cell-based
WiDr [20] = assay: Induction of oxidative stress in human WiDr cells assessed as increase in superoxide anion level at 15 uM incubated for 24 hrs by DHE based red fluorescence assay; assay type: functional, cell-based
PC-3 [21] = assay: Induction of oxidative stress in human PC-3 cells assessed as increase in peroxide level at 15 uM incubated for 24 hrs by DCFH2 based green fluorescence assay; assay type: functional, cell-based
WiDr [22] = assay: Induction of oxidative stress in human WiDr cells assessed as increase in peroxide level at 15 uM incubated for 24 hrs by DCFH2 based green fluorescence assay; assay type: functional, cell-based
PC-3 [23] = assay: Effect on GSH expression in human PC-3 cells incubated for 24 hrs by mercury orange based red fluorescence assay; assay type: functional, cell-based
WiDr [24] = assay: Effect on GSH expression in human WiDr cells incubated for 24 hrs by mercury orange based red fluorescence assay; assay type: functional, cell-based
PC-3 [25] = assay: Induction of apoptosis in human PC-3 cells assessed as late apoptotic/necrotic cells at 50 uM measured after 72 hrs by annexin-V and propidium iodide staining based flow cytometry analysis; assay type: functional
PC-3 [26] = assay: Induction of apoptosis in human PC-3 cells assessed as necrotic cells at IC50 concentration measured after 72 hrs by annexin-V and propidium iodide staining based flow cytometry analysis; assay type: functional
PC-3 [27] = assay: Induction of cell cycle arrest in human PC-3 cells assessed as G0/G1 phase measured after 72 hrs by cell cycle analysis relative to control; assay type: functional
WiDr [28] = assay: Induction of cell cycle arrest in human WiDr cells assessed as G2/M phase at 40 uM measured after 72 hrs by propidium iodide based assay relative to control; assay type: functional
PC-3 [29] = assay: Induction of apoptosis in human PC-3 cells assessed as increase in BAX/BCL-2 ratio at IC50 concentration measured after 72 hrs; assay type: functional, cell-based
WiDr [30] = assay: Induction of apoptosis in human WiDr cells assessed as increase in BAX/BCL-2 ratio at IC50 concentration measured after 72 hrs; assay type: functional, cell-based

Question: Which IC50 (PC-3 [1]) does the source give for C[C@]12CC[C@H]3O[C@H]3[C@@H]1CC[C@@H]1[C@@H]2CC[C@]2(C)/C(=N/O)CC[C@@H]12 here?
Answer: 77.9 µM

Question: And the IC50 (WiDr [2])?
Answer: 75 µM

Question: What about the IC50 (HepG2) of the same compound?
Answer: 64.3 µM

Question: How did the IC50 (PC-3 [1]) turn out when CC(C)C(=O)Nc1ccc([N+](=O)[O-])c(C(F)(F)F)c1 [FLUTAMIDE] was run?
Answer: 58 µM

Question: And the IC50 (NCI-H1299)?
Answer: > 500 µM

Question: With CC(C)CCC[C@@H](C)[C@H]1CC[C@H]2[C@@H]3C/C(=N\O)C4C[C@@H](O)CC[C@]4(C)[C@H]3CC[C@]12C (some centres not stated) as the compound, how does the IC50 (PC-3 [3]) read?
Answer: 49.8 µM

Question: How did the IC50 (WiDr [2]) turn out when CCc1c2c(nc3ccc(OC(=O)N4CCC(N5CCCCC5)CC4)cc13)-c1cc3c(c(=O)n1C2)COC(=O)[C@]3(O)CC [IRINOTECAN] was run?
Answer: 13.9 µM

Question: For C[C@]12CCCC=C1CC[C@@H]1[C@@H]2CC[C@]2(C)/C(=N/O)CC[C@@H]12, which IC50 (PC-3 [1]) is on record?
Answer: 14.5 µM

Question: And the IC50 (WiDr [2])?
Answer: 16.1 µM

Question: And the IC50 (NCI-H1299)?
Answer: 19.2 µM

Question: And the IC50 (HepG2)?
Answer: 18.2 µM

Question: And the IC50 (CCD-841CoN)?
Answer: > 75 µM

Question: And the Activity (PC-3 [4])?
Answer: 75.46%

Question: What about the Activity (WiDr [5]) of the same compound?
Answer: 38.67%

Question: What about the Activity (PC-3 [6]) of the same compound?
Answer: 6.25%

Question: What about the Activity (PC-3 [7]) of the same compound?
Answer: 32.37%

Question: What about the Activity (WiDr [8]) of the same compound?
Answer: Active

Question: And the Activity (PC-3 [9])?
Answer: Active

Question: What about the Activity (WiDr [10]) of the same compound?
Answer: Active

Question: And the “fold change (FC)” value (PC-3 [11])?
Answer: 1.51

Question: And the Activity (PC-3 [12])?
Answer: Active

Question: And the Activity (WiDr [13])?
Answer: Active

Question: And the “fold change (FC)” value (PC-3 [14])?
Answer: 3.66

Question: And the Activity (PC-3 [15])?
Answer: Active

Question: What about the Activity (WiDr [16]) of the same compound?
Answer: Active

Question: And the Activity (PC-3 [17])?
Answer: Active

Question: And the Activity (WiDr [18])?
Answer: Active

Question: And the Activity (PC-3 [19])?
Answer: Active

Question: What about the Activity (WiDr [20]) of the same compound?
Answer: Active

Question: And the Activity (PC-3 [21])?
Answer: Active

Question: What about the Activity (WiDr [22]) of the same compound?
Answer: Active

Question: What about the Activity (PC-3 [23]) of the same compound?
Answer: inactive

Question: What about the Activity (WiDr [24]) of the same compound?
Answer: inactive

Question: Which results are given for C[C@]12CC[C@H]3O[C@H]3[C@@H]1CC[C@@H]1[C@@H]2CC[C@]2(C)C(=O)CC[C@@H]12?
Answer: IC50 (PC-3 [1]): 46.8 µM; IC50 (WiDr [2]): 60.9 µM; IC50 (HepG2): 32.6 µM

Question: With C[C@]12CC[C@H]3[C@@H](CC[C@@]45O[C@@H]4CCC[C@]35C)[C@@H]1CCC2=O as the compound, how does the IC50 (PC-3 [1]) read?
Answer: 62.1 µM

Question: What about the IC50 (WiDr [2]) of the same compound?
Answer: 59.1 µM

Question: And the IC50 (HepG2)?
Answer: 42.4 µM

Question: How did the IC50 (WiDr [2]) turn out when C[C@]12CC[C@H]3[C@@H](CC[C@@]45O[C@@H]4CCC[C@]35C)[C@@H]1CC/C2=N\O was run?
Answer: 53.4 µM

Question: What about the IC50 (HepG2) of the same compound?
Answer: 52.7 µM

Question: COc1cc([C@@H]2c3cc4c(cc3[C@@H](O[C@@H]3O[C@@H]5CO[C@@H](C)O[C@H]5[C@H](O)[C@H]3O)[C@H]3COC(=O)[C@H]23)OCO4)cc(OC)c1O [ETOPOSIDE] was tested. Which IC50 (NCI-H1299) did it give?
Answer: 230 µM

Question: What does the source list for O=c1[nH]cc(F)c(=O)[nH]1 [FLUOROURACIL]?
Answer: IC50 (WiDr [2]): 10.5 µM; IC50 (HepG2): 19 µM

Question: What does the source list for C[C@]12CCC=C[C@@H]1CC[C@@H]1[C@@H]2CC[C@]2(C)C(=O)CC[C@@H]12?
Answer: IC50 (PC-3 [1]): 23.1 µM; IC50 (HepG2): 15 µM

Question: How did the IC50 (PC-3 [1]) turn out when C[C@]12CCCC=C1CC[C@@H]1[C@@H]2CC[C@]2(C)C(=O)CC[C@@H]12 was run?
Answer: 21.5 µM

Question: What about the IC50 (WiDr [2]) of the same compound?
Answer: 28 µM

Question: And the IC50 (NCI-H1299)?
Answer: 21.5 µM

Question: What about the IC50 (HepG2) of the same compound?
Answer: 17.7 µM

Question: Which results are given for C[C@]12CCC=C[C@@H]1CC[C@@H]1[C@@H]2CC[C@]2(C)/C(=N/O)CC[C@@H]12?
Answer: IC50 (PC-3 [1]): 13.8 µM; IC50 (WiDr [2]): 9.1 µM; IC50 (NCI-H1299): 18.6 µM; IC50 (HepG2): 23.9 µM; IC50 (CCD-841CoN): 31.7 µM; Activity (PC-3 [4]): 72.74%; Activity (WiDr [5]): 47.67%; Activity (PC-3 [25]): 18.01%; Activity (PC-3 [26]): 49.94%; Activity (PC-3 [27]): 9.66%; Activity (WiDr [28]): Active; Activity (PC-3 [9]): Active; Activity (WiDr [10]): Active; Activity (PC-3 [29]): Active; Activity (WiDr [30]): Active; Activity (PC-3 [12]): Active; Activity (WiDr [13]): Active; Activity (PC-3 [15]): Active; Activity (WiDr [16]): Active; Activity (PC-3 [17]): Active; Activity (WiDr [18]): Active; Activity (PC-3 [19]): Active; Activity (WiDr [20]): Active; Activity (PC-3 [21]): Active; Activity (WiDr [22]): Active; Activity (PC-3 [23]): inactive; Activity (WiDr [24]): inactive
